In the experiment the target is T1, Squalene synthase (Rattus norvegicus, UniProt Q02769).
T1 construct: from tissue; host or cells: liver microsomes of Charles River CD rats fed 0.1% lovastatin for 4 days
T1 sequence (Q02769 1-416): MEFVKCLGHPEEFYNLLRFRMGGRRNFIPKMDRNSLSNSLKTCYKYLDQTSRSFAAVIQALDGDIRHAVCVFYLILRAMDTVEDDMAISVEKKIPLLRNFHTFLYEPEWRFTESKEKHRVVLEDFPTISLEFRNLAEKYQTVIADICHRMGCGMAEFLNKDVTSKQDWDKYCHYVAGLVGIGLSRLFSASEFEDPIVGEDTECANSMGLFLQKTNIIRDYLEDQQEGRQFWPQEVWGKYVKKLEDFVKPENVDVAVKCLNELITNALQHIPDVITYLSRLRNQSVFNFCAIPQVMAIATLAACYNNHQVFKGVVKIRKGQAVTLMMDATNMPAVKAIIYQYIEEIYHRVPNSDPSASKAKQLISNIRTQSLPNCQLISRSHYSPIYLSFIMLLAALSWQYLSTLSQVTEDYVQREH
As to the kind of experiment: Squalene synthase assay (rat liver microsomes, [3H]farnesyl-pyrophosphate). The class given is biochemical. The following applies: 30° C., 20 minutes. On the procedure: The intrinsic squalene synthase inhibitory activity of representative compounds of this invention was measured by the standard in vitro protocol described below:
CHARLES RIVER CD rats (120 to 150 g) were fed a diet containing 0.1% lovastatin for 4 days. The livers from these rats were homogenized in 5 volumes (mL/g) of ice cold 50 mM HEPES (4-(2-hydroxyethyl)-1-piperazine-ethanesulfonic acid), 5 mM EDTA (ethylenediaminetetraacetic acid) pH 7.5 with a Potter-Elvehjem type tissue grinder. The homogenate was centrifuged twice at 20,000× g for 15 min. at 4° C., discarding the pellet each time. The supernatant was then centrifuged at 100,000× g for 1 hr at 4° C. The resulting microsomal pellet was resuspended in a volume of the above homogenizing buffer equal to one-fifth the volume of the original homogenate. This microsomal preparation has a protein concentration of about 7 mg/mL. The microsomal suspensions were stored in aliquots at -70° C. Squalene synthase activity in these aliquots is stable for a least several months. […]
If a squalene epoxidase inhibitor (ingredient (7) above), such as Banyu's FW-439H, is not used, the assay mix is degassed under a vacuum and flushed with N2. […] Five mL of scintillation fluid was added to the heptane solution and radioactivity was determined by liquid scintillation counting.
Percent inhibition is calculated by the formula: [formula]

A value given as a limit tells only on which side of the number the result lay.

For 1 compound, IC50 results are on record in patent publication US5294627A, “Directed biosynthesis of biologically active compounds” (Merck & Co., Inc., priority 1992, dated 1994).

With `CC(=O)OC(CCCC12OC(C(=O)O)C(O)(C(=O)O)C(C(=O)O)(O1)[C@H](OC(=O)CC/C=C/C(C)CCCc1ccccc1)[C@H]2O)C(C)Cc1cccs1` (stereo partly shown), the IC50 is less than 0.131 µM.

The term IC50 denotes the midpoint of a concentration-inhibition curve. The low end stands for greater potency, the high end for weaker potency.
